Test results reported in patent publication US6013244A, “21-(2-oxo-tetrahydrofuran)-thio pregnane derivatives, a process for their production and pharmaceutical compositions containing them” (Glaxo Wellcome Inc., priority 1995, dated 2000).
pEC50: −log10 of the molar value.

How the values were obtained:
[1] = target: T1, Human Glucocorticoid Receptor (Homo sapiens, UniProt P04150); experiment: functional in vitro glucocorticoid assay, MMTV-sPAP reporter gene in transfected Hela cells; assay type: cell-based
T1 construct: endogenous in cells; host or cells: HeLa cells stably transfected with the MMTV-LTR/sPAP reporter
T1 sequence (P04150 1-777): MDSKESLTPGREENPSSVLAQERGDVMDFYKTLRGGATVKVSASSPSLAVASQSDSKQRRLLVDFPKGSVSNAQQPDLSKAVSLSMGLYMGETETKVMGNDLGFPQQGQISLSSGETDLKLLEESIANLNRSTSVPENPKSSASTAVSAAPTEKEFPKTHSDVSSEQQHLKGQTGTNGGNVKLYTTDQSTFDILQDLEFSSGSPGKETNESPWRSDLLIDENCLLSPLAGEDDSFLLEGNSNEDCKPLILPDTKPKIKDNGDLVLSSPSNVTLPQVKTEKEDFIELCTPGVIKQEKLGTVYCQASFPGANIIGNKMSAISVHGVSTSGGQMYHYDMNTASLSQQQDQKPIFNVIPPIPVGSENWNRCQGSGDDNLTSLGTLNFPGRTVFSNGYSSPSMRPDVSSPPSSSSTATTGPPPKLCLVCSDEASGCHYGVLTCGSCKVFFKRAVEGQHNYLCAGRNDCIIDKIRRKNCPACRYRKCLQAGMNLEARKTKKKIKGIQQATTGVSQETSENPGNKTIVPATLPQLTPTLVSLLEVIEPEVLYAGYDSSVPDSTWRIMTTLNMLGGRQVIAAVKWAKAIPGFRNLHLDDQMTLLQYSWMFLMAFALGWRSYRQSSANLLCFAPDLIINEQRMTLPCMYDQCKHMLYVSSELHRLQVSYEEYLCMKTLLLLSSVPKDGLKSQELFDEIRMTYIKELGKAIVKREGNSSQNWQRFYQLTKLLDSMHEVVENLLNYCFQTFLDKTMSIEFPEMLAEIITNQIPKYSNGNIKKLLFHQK
Method: The functional assay used was a modification of the method described by T. S Berger et al, of J. of Steroid Biochem. Molec.
Thus, Hela cells were stably transfected with a detectable reporter gene (secreted placental alkaline phosphatase, sPAP) under the control of a glucocorticoid response promoter (the LTR of the mouse mammary tumour virus, MMTV). Various concentrations of standard (dexamethasone) or compounds of the invention were incubated with transfected Hela cells for 72 hours. At the end of the incubation, substrate ([…]) for sPAP was added and the product measured by a spectrophotometric method. Increased absorbance reflected increased sPAP transcription and concentration-response lines were constructed such that EC50 -values could be estimated.

lung eosinophilia = experiment: Inhibition of lung eosinophilia in Brown Norway rats; assay type: in vivo; conditions: OVA-sensitised male Brown Norway rats, lung lavage on day 16
Method: (i) Anti-inflammatory Activity--Inhibition of lung eosinophilia in Brown Norway rats
Male Brown norway rats (150-180 g) are sensitised with 1 ml intra-peritoneally (ip) containing 10 mg Al (OH)3 +1 mg Ovalbumin (OVA) on day 1. On day 7 each rat received 1 ml ip containing 10 mg Al(OH)3 +100 ug OVA. On day 14, each rat received an intratracheal (IT) dose of compound or vehicle (0.2 ml), under isoflurane anaesthesia. Compounds are suspended in 0.9% saline/0.2% Tween 80. 4 h after compound administration, each animal receives 400 ug OVA in saline IT (0.2 ml). On day 16, animals are killed and the lungs lavaged with 5 mls of lavage fluid (10 mM EDTA, phosphate buffered saline (pH 7.4), 5 units heparin/ml, 0.1% BSA). The samples are centrifuged at 1000 RPM for 10 minutes. The supernatant is removed and the cells resuspended in 0.5 ml lavage fluid. Total cells are counted with a Sysmex counter. Cytospin slides are prepared using 75 ul of the cell suspension and the cells are stained with May-Grunwald stain. Differential cell counts are performed using a microscope. Numbers of eosinophils are calculated per ul of lavage fluid per rat allowing percentage reduction in eosinophilia to be calculated.

[2] = tested on: Adrenocorticotrophic hormone (ACTH); experiment: Systemic Effects - ACTH Suppression in Adrenalectomised Rats; assay type: in vivo; conditions: adrenalectomised male CD rats, plasma
Method: (II) Systemic Effects--ACTH Suppression in Adrenalectomised Rats
Male CD rats (90-120 g) were adrenalectomised under Isoflurane anaesthesia and drinking water was supplemented with 0.9% saline. Four days later the animals receive a single intravenous dose of compound dissolved in DMA/PEG-200/distilled water (1:6:3) (0.2 ml) at 10 am. At 2 h and 4 h afterwards animals are sacrificed by administration of Euthetal and blood samples are taken by intra-cardiac puncture and collected into heparinised tubes. The samples are centrifuged (20 minutes at 1000 RPM at 4 deg C), the plasma is collected and assayed by Radioimmunoassay (RIA) for Adrenocorticotrophic hormone (ACTH) using a DPC double antibody RIA kit. Intact and vehicle control groups for each time point assessed were included in each experiment in order to account for diurnal variation in ACTH and effects of vehicle. Results are calculated with respect to the RIA standard curve and expressed as ACTH pg/ml plasma, allowing percentage reduction in ACTH to be calculated.

[3] = dose 6.25 μg single intravenous

Structure (SMILES) | pEC50 [1] | also measured
CCCC1O[C@@H]2C[C@H]3[C@@H]4CCC5=CC(=O)C=C[C@]5(C)[C@H]4[C@@H](O)C[C@]3(C)[C@]2(C(=O)CSC2CCOC2=O)O1 (single isomer, unassigned) [Example 9 isomer A, 16α,17α-Butylidenedioxy-11β-hydroxy-21-(2-oxo-tetrahydrofuran-3-yl-sulfanyl)-pregna-1,4-diene-3,20-dione] | > 6.22 | 
CC1(C)O[C@@H]2C[C@H]3[C@@H]4C[C@H](F)C5=CC(=O)C=C[C@]5(C)[C@@]4(F)[C@@H](O)C[C@]3(C)[C@]2(C(=O)CS[C@H]2CCOC2=O)O1 (single isomer, unassigned) [Example 3 Isomer A, 6α,9α-Difluoro-11β-hydroxy-16α,17α-isopropylidenedioxy-21-(2-oxo-tetrahydro-furan-3S-yl-sulfanyl)-pregna-1,4-diene-3,20-dione] |  | % Reduction in Eosinophilia (lung eosinophilia; dose 250 μg intratracheal): 74%; % Reduction in Eosinophilia (lung eosinophilia; dose 750 μg intratracheal): 97%; % Reduction in ACTH at 2 h ([2]; dose 500 μg single intravenous): 16%; % Reduction in ACTH at 4 h ([2]; dose 500 μg single intravenous): 15%
CCC[C@@H]1O[C@@H]2C[C@H]3[C@@H]4C[C@H](F)C5=CC(=O)CC[C@]5(C)[C@@]4(F)[C@@H](O)C[C@]3(C)[C@]2(C(=O)CSC2CCOC2=O)O1 (stereo partly drawn) [Example 8, 16α,17α-(R-Butylidenedioxy)-6α,9α-difluoro-11β-hydroxy-21-(2-oxo-tetrahydro-furan-3-yl-sulfanyl)-pregn-4-ene-3,20-dione] | > 6.22 | 
CCC[C@@H]1O[C@@H]2C[C@H]3[C@@H]4C[C@H](F)C5=CC(=O)CC[C@]5(C)[C@@]4(F)[C@@H](O)C[C@]3(C)[C@]2(C(=O)CSC2COC(=O)C2)O1 (stereo partly drawn) [Example 11, 16α,17α-(R-Butylidenedioxy)-6α,9α-difluoro-11β-hydroxy-21-(2-oxo-tetrahydro-furan-4-yl-sulfanyl)-pregn-4-ene-3,20-dione] | > 6.22 | 
CCC[C@@H]1O[C@@H]2C[C@H]3[C@@H]4C[C@H](F)C5=CC(=O)C=C[C@]5(C)[C@@]4(F)[C@@H](O)C[C@]3(C)[C@]2(C(=O)CSC2CCOC2=O)O1 (stereo partly drawn) [Example 7, 16α,17α-(R-Butylidenedioxy)-6α,9α-difluoro-11β-hydroxy-21-(2-oxo-tetrahydro-furan-3-yl-sulfanyl)-pregna-1,4-diene-3,20-dione] | > 6.22 | 
CCC(=O)O[C@]1(C(=O)CSC2CCOC2=O)[C@H](C)C[C@H]2[C@@H]3C[C@H](F)C4=CC(=O)C=C[C@]4(C)[C@@]3(F)[C@@H](O)C[C@@]21C (stereo partly drawn) [Example 1, 6α,9α-Difluoro-11β-hydroxy-16α-methyl-21-(2-oxo-tetrahydro-furan-3-yl-sulfanyl)-17α-propionyloxy-pregna-1,4-diene-3,20-dione] | > 6.22 | 
CC1(C)O[C@@H]2C[C@H]3[C@@H]4C[C@H](F)C5=CC(=O)CC[C@]5(C)[C@@]4(F)[C@@H](O)C[C@]3(C)[C@]2(C(=O)CSC2CCOC2=O)O1 (stereo partly drawn) [Example 6, 6α,9α-Difluoro-11β-hydroxy-16α,17α-isopropylidenedioxy-21-(2-oxo-tetrahydro-furan-3-yl-sulfanyl)-pregn-4-ene-3,20-dione] | > 6.22 | 
CCC(=O)O[C@]1(C(=O)CSC2CCOC2=O)[C@H](C)C[C@H]2[C@@H]3C[C@H](F)C4=CC(=O)CC[C@]4(C)[C@@]3(F)[C@@H](O)C[C@@]21C (stereo partly drawn) [Example 2, 6α,9α-Difluoro-11β-hydroxy-16α-methyl-21-(2-oxo-tetrahydro-furan-3-yl-sulfanyl)-17α-propionyloxy-pregn-4-ene-3,20-dione] | > 6.22 | 
CC1(C)O[C@@H]2C[C@H]3[C@@H]4C[C@H](F)C5=CC(=O)C=C[C@]5(C)[C@@]4(F)[C@@H](O)C[C@]3(C)[C@]2(C(=O)CSC2COC(=O)C2)O1 (stereo partly drawn) [Example 10, 6α,9α-Difluoro-11β-hydroxy-16α,17α-isopropylidenedioxy-21-(2-oxo-tetrahydro-furan4-yl-sulfanyl)-pregna-1,4-diene-3,20-dione] | > 6.22 | 
CCCC1O[C@@H]2C[C@H]3[C@@H]4CCC5=CC(=O)C=C[C@]5(C)[C@H]4[C@@H](O)C[C@]3(C)[C@]2(C(=O)CO)O1 (stereo partly drawn) [Budesonide, reference compound] |  | % Reduction in Eosinophilia (lung eosinophilia; dose 250 μg intratracheal): 82%; % Reduction in ACTH at 2 h [2, 3]: 61%; % Reduction in ACTH at 4 h [2, 3]: 32%
